Assay results from ChEMBL document CHEMBL4402592, “Targeting Endoplasmic Reticulum α-Glucosidase I with a Single-Dose Iminosugar Treatment Protects against Lethal Influenza and Dengue Virus Infections” (J Med Chem, 2020).
Calls of active or inactive are those of the source. No cut-off for these calls is given here.

What was measured:
dengue virus type 2 [1] = test: Antiviral activity against Dengue virus 2 S221 infected in DENV antibody dependent enhancement AG129 mouse model assessed as animal survival at 250 mg/kg, po administered via gavage as two doses at 36 and 52 hrs post infection (reference value: 4%); type: functional
Influenza A virus [2] = test: Antiviral activity against Influenza A virus (A/Texas/36/1991(H1N1)) infected in BALB/c mouse assessed as median death time at 750 mg/kg, po administered via gavage as single dose at 16 hrs post infection (reference value: 8.5 days); type: functional
Influenza A virus [3] = test: Antiviral activity against Influenza A virus (A/Texas/36/1991(H1N1)) infected in BALB/c mouse assessed as median death time at 500 mg/kg, po administered via gavage as single dose at 16 hrs post infection (reference value: 8.5 days); type: functional
dengue virus type 2 [4] = test: (§1) Antiviral activity against Dengue virus 2 S221 infected in DENV antibody dependent enhancement AG129 mouse model assessed as reduction in IL-12/IL-23p40 level at 750 mg/kg, po administered via gavage as two doses at 36 hrs and 52 hrs post infection measured at 60 hrs post-infection by electrochemiluminescence based method; type: functional, organism-based
Mus musculus [5] = test: In vivo inhibition of ERGlu2 in BALB/c mouse assessed as increase in mono-glucosylated FOS level in lung at 20 mg/kg, po administered via gavage starting at 8 hrs post-infection and continuing tid for 5 days and measured at 8 hrs post-final dose by NP-HPLC analysis; type: functional, organism-based
dengue virus type 2 [6] = test: Antiviral activity against Dengue virus 2 S221 infected in DENV antibody dependent enhancement AG129 mouse model assessed as animal survival at 500 mg/kg, po administered via gavage as two doses at 36 and 52 hrs post infection (reference value: 4%); type: functional
Mus musculus [7] = test: In vivo inhibition of ERGlu1 in BALB/c mouse assessed as increase in tri-glucosylated FOS level in serum at 750 mg/kg, po administered via gavage as single dose and measured after 16 hrs by NP-HPLC analysis; type: functional, organism-based
dengue virus type 2 [8] = test: Antiviral activity against Dengue virus 2 S221 infected in DENV antibody dependent enhancement AG129 mouse model assessed as animal survival at 750 mg/kg, po administered via gavage as two doses at 36 and 52 hrs post infection (reference value: 4%); type: functional
dengue virus type 2 [9] = test: as §1, with “TNF-alpha” for “IL-12/IL-23p40”, “single dose” for “two doses”, “36” for “36 hrs and 52”, “52” for “60”; type: functional, organism-based
Mus musculus [10] = test: In vivo inhibition of ERGlu1 in BALB/c mouse assessed as increase in tri-glucosylated FOS level in spleen at >250 mg/kg, po administered via gavage as single dose at 8 hrs post-infection and measured at 8 hrs post dose by NP-HPLC analysis; type: functional, organism-based
Mus musculus [11] = test: In vivo inhibition of ERGlu1 in BALB/c mouse assessed as increase in mono-glucosylated FOS level in lung at 100 to 1000 mg/kg, po administered via gavage at 8 hrs post-infection and measured at 8 hrs post-dose by NP-HPLC analysis; type: functional, organism-based
Mus musculus [12] = test: In vivo inhibition of ERGlu2 in BALB/c mouse assessed as increase in mono-glucosylated FOS level in spleen at 20 mg/kg, po administered via gavage starting at 8 hrs post-infection and continuing tid for 5 days and measured at 8 hrs post-final dose by NP-HPLC analysis; type: functional, organism-based
Influenza A virus [13] = test: Antiviral activity against Influenza A virus (A/Texas/36/1991(H1N1)) infected in BALB/c mouse assessed as animal survival at 500 mg/kg, po administered via gavage as single dose at 8 hrs post infection (reference value: 0%); type: functional
dengue virus type 2 [14] = test: as §1, with “IL-10” for “IL-12/IL-23p40”, “72” for “60”; type: functional, organism-based
Influenza A virus [15] = test: Antiviral activity against Influenza A virus (A/Texas/36/1991(H1N1)) infected in BALB/c mouse assessed as median death time at 500 mg/kg, po administered via gavage as single dose at 24 hrs post infection (reference value: 8.5 days); type: functional
Influenza A virus [16] = test: Antiviral activity against Influenza A virus (A/Texas/36/1991(H1N1)) infected in BALB/c mouse assessed as median death time at 500 mg/kg, po administered via gavage as three dosed at 8, 32 and 56 hrs post infection (reference value: 8 days); type: functional
Influenza A virus [17] = test: Antiviral activity against Influenza A virus (A/Texas/36/1991(H1N1)) infected in BALB/c mouse assessed as median death time at 500 mg/kg, po administered via gavage as single dose at 8 hrs post infection; type: functional
dengue virus type 2 [18] = test: Antiviral activity against Dengue virus 2 S221 infected in DENV antibody dependent enhancement AG129 mouse model assessed as animal survival at 375 mg/kg, po administered via gavage as two doses at 24 and 40 hrs post infection (reference value: 4%); type: functional
Influenza A virus [19] = test: Antiviral activity against Influenza A virus (A/Texas/36/1991(H1N1)) infected in BALB/c mouse assessed as animal survival at 250 mg/kg, po administered via gavage as two doses at 8 and 32 hrs post infection (reference value: 0%); type: functional
Influenza A virus [20] = test: Antiviral activity against Influenza A virus (A/Texas/36/1991(H1N1)) infected in BALB/c mouse assessed as median death time at 750 mg/kg, po administered via gavage as single dose at 24 hrs post infection (reference value: 8.5 days); type: functional
Mus musculus [21] = test: In vivo inhibition of ERGlu2 in BALB/c mouse assessed as increase in mono-glucosylated FOS level in spleen at 100 mg/kg, po administered via gavage starting at 8 hrs post-infection and continuing tid for 5 days and measured at 8 hrs post-final dose by NP-HPLC analysis; type: functional, organism-based
dengue virus type 2 [22] = test: Antiviral activity against Dengue virus 2 S221 infected in DENV antibody dependent enhancement AG129 mouse model assessed as log10 reduction in viremia by measuring foci of BHK21 cells containing DENV E at 750 mg/kg, po administered via gavage as single dose at 36 hrs post infection measured after titration of compound treated infected animal serum with BHK21 cells by TrueBlue staining based focus forming assay; type: functional
dengue virus type 2 [23] = test: as §1, with “single dose” for “two doses”, “36” for “36 hrs and 52”, “72” for “60”; type: functional, organism-based
dengue virus type 2 [24] = test: as §1, with “IFN-gamma” for “IL-12/IL-23p40”, “single dose” for “two doses”, “36” for “36 hrs and 52”, “72” for “60”; type: functional, organism-based
dengue virus type 2 [25] = test: as §1, with “single dose” for “two doses”, “36” for “36 hrs and 52”; type: functional, organism-based
Influenza A virus [26] = test: Antiviral activity against Influenza A virus (A/Texas/36/1991(H1N1)) infected in BALB/c mouse assessed as animal survival at 250 mg/kg, po administered via gavage as three doses at 8, 32 and 56 hrs post infection (reference value: 0%); type: functional
dengue virus type 2 [27] = test: as §1, with “KC-GRO” for “IL-12/IL-23p40”, “72” for “60”; type: functional, organism-based
Influenza A virus [28] = test: Antiviral activity against Influenza A virus (A/Texas/36/1991(H1N1)) infected in BALB/c mouse assessed as animal survival at 750 mg/kg, po administered via gavage as two doses at 8 and 32 hrs post infection (reference value: 0%); type: functional

## COCCCCCCCCCN1C[C@H](O)[C@@H](O)[C@H](O)[C@H]1CO.Cl
Dengue virus type 2 [1]
  survival at 250 mg/kg: 100%
Influenza A virus [2]
  Time: >14 days
Influenza A virus [3]
  Time: 12 days
Dengue virus type 2 [4]
  Activity: Active
Mus musculus [5]
  inhibition: Active
Dengue virus type 2 [6]
  survival at 500 mg/kg: 86%
Mus musculus [7]
  inhibition: Active
Dengue virus type 2 [8]
  survival at 750 mg/kg: 100%
Dengue virus type 2 [9]
  Activity: Active
Mus musculus [10]
  inhibition: Active
Mus musculus [11]
  inhibition: Active
Mus musculus [12]
  inhibition: Active
Influenza A virus [13]
  survival at 500 mg/kg: 50%
Dengue virus type 2 [14]
  Activity: Active
Influenza A virus [15]
  Time: 11 days
Influenza A virus [16]
  Time: >14 days
Influenza A virus [17]
  Time: 12.5 days
Dengue virus type 2 [18]
  survival at 375 mg/kg: 100%
Influenza A virus [19]
  survival at 250 mg/kg: 60%
Influenza A virus [20]
  Time: 10 days
Mus musculus [21]
  inhibition: Active
Dengue virus type 2 [22]
  log(activity): >1
Dengue virus type 2 [23]
  Activity: Active
Dengue virus type 2 [24]
  Activity: Active
Dengue virus type 2 [25]
  Activity: Active
Influenza A virus [26]
  survival at 250 mg/kg: 0%
Dengue virus type 2 [27]
  Activity: Active
Influenza A virus [28]
  survival at 750 mg/kg: 100%
